From publication PMC11784839, “Monoaminergic neurotransmitters are bimodal effectors of tau aggregation” (Science Advances, 2025) come the findings set out here.

For the test, the target named is tau (Homo sapiens, UniProt P10636). Briefly: MCE Phenols Library screening, tau biosensor cell seeding assay (AvZ). The class given is cell-based. The note with it: for Z repl 1 / Z Repl 2: Z score; for Z repl 1 / raw data 1: replicate 1; for Z Repl 2 / raw data 2: replicate 2; for AvZ (average z score of seeding, SDs from the mean level of seeding): 10 μM phenol in cell cultures, AD brain homogenate preincubated 16 hours, two biological replicates, positive = catalyzes seeding, negative = inhibits.
Sequence of tau (P10636 623-695 limits assumed): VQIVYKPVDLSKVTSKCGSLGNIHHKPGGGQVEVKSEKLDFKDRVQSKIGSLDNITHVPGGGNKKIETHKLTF

Where [1] appears, read: average Z score of the two replicates, MCE Phenols Library screen.
[2] abbreviates: average puncta of the two replicates.
The mark [3] stands for this setting: average Z score of two replicates, Phenols Library screen.
Where [4] appears, read: average Z score of the two replicates, tau seeding.

SMILES strings stand for the structures.

As for `O=C1c2ccccc2C(=O)c2c(O)c(O)cc(O)c21` [Purpurin], the “Z repl 1” value was found to be 0.055 and the “Z Repl 2” value was -0.946. The “av Z” value under setting [1] is on record as -0.446. In addition, the av puncta under setting [2] was 14831.1. Under “raw puncta”, the “raw data 1” value was 27004.8 and the “raw data 2” value came to 2657.32.
Consider `O=C(O)c1cccc(O)c1O` [Pyrocatechuic acid], for which the “AvZ (average z score of seeding, SDs from the mean level of seeding)” value (shortened to “AvZ”) is reported as -0.338; the “Z repl 1” value was -0.028; the “Z Repl 2” value was -0.648. The same compound returned an av puncta under setting [2] of 15926.2. Moreover, where the note is “raw puncta”, the “raw data 1” value was 26009.1 and the “raw data 2” value was found to be 5843.4.
For `Oc1cccc(O)c1O` [Pyrogallol], the “AvZ” value was -0.851; the “Z repl 1” value was -0.635; the “Z Repl 2” value was -1.067. This compound came in with an av puncta (average of raw data 1 and 2) of 10051. Under “puncta”, the “raw data 1” value is 18727.1 and the “raw data 2” value stood at 1374.88.
Regarding `O=c1c(O)c(-c2ccc(O)c(O)c2)oc2cc(O)c(O)c(O)c12` [Quercetagetin], the “Z repl 1” value is -1.958 and the “Z Repl 2” value is listed as -1.183. In addition, under setting [1], the “av Z” value is recorded as -1.57. Where the note is “average of raw data 1 and 2”, this compound showed an av puncta of 1487.44. Where the note is “puncta”, the “raw data 1” value is 2842.17 and the “raw data 2” value was 132.721.
With `O=c1c(O)c(-c2ccc(O)c(O)c2)oc2cc(O[C@@H]3O[C@H](CO)[C@@H](O)[C@H](O)[C@H]3O)c(O)c(O)c12` [Quercetagitrin], the “Z repl 1” value is given as -1.577 and the “Z Repl 2” value was -1.176. In addition, under setting [1], the “av Z” value is -1.376. Under “average of raw data 1 and 2”, the av puncta is reported as 3815.32. In addition, for the setting “puncta”, the “raw data 1” value is 7422.91 and the “raw data 2” value is listed as 207.732.
As to `O.O.O=c1c(O)c(-c2ccc(O)c(O)c2)oc2cc(O)cc(O)c12` [Quercetin (dihydrate)], the “Z repl 1” value is -1.56 and the “Z Repl 2” value is listed as -1.162. Further, the “av Z” value under setting [1] is -1.361. Besides, the av puncta (average of raw data 1 and 2) worked out at 3988.66. For the same compound, for the setting “puncta”, the “raw data 1” value is on record as 7625.22 and the “raw data 2” value turned out to be 352.104.
As to `C[C@@H]1O[C@@H](Oc2c(-c3ccc(O)c(O)c3)oc3cc(O)cc(O)c3c2=O)[C@H](O)[C@H](O)[C@H]1O` [Quercitrin], the “Z repl 1” value is -0.089 and the “Z Repl 2” value is recorded as -0.329. Also, the “av Z” value under setting [1] is reported as -0.209. Under setting [2], the av puncta came out at 17263.5. Under “raw puncta”, the “raw data 1” value came out at 25279.8 and the “raw data 2” value amounted to 9247.27.
Consider `O=C1c2ccccc2C(=O)c2c(O)ccc(O)c21` [Quinizarin], for which the “Z repl 1” value is on record as -1.021 and the “Z Repl 2” value is given as -0.252. Further, the “av Z” value under setting [1] is on record as -0.637. The av puncta under setting [2] worked out at 12081.4. Moreover, where the note is “puncta”, the “raw data 1” value is reported as 14091.5 and the “raw data 2” value stood at 10071.4.
On to `CC(=O)CCc1ccc(O)cc1` [Raspberry ketone], for which the “AvZ” value is listed as -0.371; the “Z repl 1” value came out at 0.027; the “Z Repl 2” value is given as -0.77. Under setting [2], this compound came in with an av puncta of 15608.2. Besides, under “raw puncta”, the “raw data 1” value came to 26674.5 and the “raw data 2” value was determined as 4541.81.
With `Oc1ccc(/C=C/c2cc(O)cc(O)c2)cc1` [Resveratrol], the “Z repl 1” value is reported as -0.355 and the “Z Repl 2” value is on record as -0.816. Under setting [1], the “av Z” value is reported as -0.586. The compound further registered an av puncta under setting [2] of 13066.7. Besides, where the note is “puncta”, the “raw data 1” value turned out to be 22084.8 and the “raw data 2” value turned out to be 4048.5.
As for `COc1cc(O)c2c(=O)c(OC)c(-c3ccc(OC)c(OC)c3)oc2c1` [Retusin], the “Z repl 1” value is on record as -0.575 and the “Z Repl 2” value was -0.37. Under setting [1], the “av Z” value is given as -0.472. Under setting [2], this compound yielded an av puncta of 14132.2. Further, under “puncta”, the “raw data 1” value is given as 19450.4 and the “raw data 2” value worked out at 8814.06.
On to `O=c1c(O[C@@H]2OC[C@@H](O)[C@H](O)[C@H]2O)c(-c2ccc(O)c(O)c2)oc2cc(O)cc(O)c12` [Reynoutrin], for which the “Z repl 1” value is -0.491 and the “Z Repl 2” value was -0.104. Also, the “av Z” value under setting [1] is reported as -0.297. The compound also came in with an av puncta under setting [2] of 16057.3. Besides, under “raw puncta”, the “raw data 1” value came out at 20455.1 and the “raw data 2” value is 11659.4.
With `COc1cc(O)c2c(=O)c(O)c(-c3ccc(O)c(O)c3)oc2c1` [Rhamnetin], the “Z repl 1” value is -0.386 and the “Z Repl 2” value came to 0.151. Moreover, the “av Z” value under setting [3] was -0.117. The compound further registered an av puncta (average of raw data 1 and 2) of 18050.7. For the setting “puncta”, the “raw data 1” value was 21720.4 and the “raw data 2” value was 14381.1.
As for `O=C(O)c1cc(O)c2c(c1)C(=O)c1cccc(O[C@@H]3O[C@H](CO)[C@@H](O)[C@H](O)[C@H]3O)c1C2=O` [Rhein 8-Glucoside], the “Z repl 1” value is recorded as 0.64 and the “Z Repl 2” value is 0.434. Moreover, the “av Z” value under setting [4] turned out to be 0.537. This compound also registered an av puncta (average of raw data 1 and 2) of 25718.8. For the same compound, under “puncta”, the “raw data 1” value came to 34038.2 and the “raw data 2” value came out at 17399.4.
`C[C@@H]1O[C@@H](Oc2cc(O)c3c(=O)c(O)c(-c4ccc(O)cc4)oc3c2O)[C@H](O)[C@H](O)[C@H]1O` [Rhodionin]: the “Z Repl 2” value is -1.086. For the same compound, under setting [1], the “av Z” value is recorded as -1.13. Also, the av puncta (average of raw data 1 and 2) worked out at 6714.99. Further, under “puncta”, the “raw data 1” value is 12258.1 and the “raw data 2” value came out at 1171.9.
`C[C@@H]1O[C@@H](O[C@H]2[C@H](Oc3cc(O)c4c(=O)cc(-c5ccc(O)cc5)oc4c3)O[C@H](CO)[C@@H](O)[C@@H]2O)[C@H](O)[C@H](O)[C@H]1O` [Rhoifolin]: the “Z repl 1” value worked out at 0.9 and the “Z Repl 2” value is on record as -0.094. Moreover, the “av Z” value under setting [4] is on record as 0.403. Further, the av puncta (average of raw data 1 and 2) is on record as 24460.4. Further, for the setting “puncta”, the “raw data 1” value was 37158.3 and the “raw data 2” value was determined as 11762.4.
In the case of `O=c1c(O)c(-c2cc(O)c(O)c(O)c2)oc2cc(O)ccc12` [Robinetin], the “Z repl 1” value was -0.499 and the “Z Repl 2” value was -0.831. Besides, the “av Z” value under setting [1] was -0.665. The av puncta under setting [2] was found to be 12124.5. Besides, where the note is “puncta”, the “raw data 1” value is listed as 20360.8 and the “raw data 2” value is recorded as 3888.25.
`CC1OC(OCC2OC(Oc3c(-c4ccc(O)cc4)oc4cc(OC5OC(C)C(O)C(O)C5O)cc(O)c4c3=O)C(O)C(O)C2O)C(O)C(O)C1O` (centres unmarked) [Robinin]: the “Z repl 1” value is listed as 0.02 and the “Z Repl 2” value is -0.843. The “av Z” value under setting [1] was -0.411. This compound yielded an av puncta under setting [2] of 15180.1. In addition, under “raw puncta”, the “raw data 1” value is 26593.3 and the “raw data 2” value is recorded as 3766.89.
As for `COc1c2ccoc2nc2c(O)cccc12` [Robustine], the “Z repl 1” value is 0.29 and the “Z Repl 2” value was determined as 0.728. The “av Z” value under setting [4] is recorded as 0.509. For the setting “average of raw data 1 and 2”, this compound gave an av puncta of 25188.7. Also, for the setting “puncta”, the “raw data 1” value is listed as 29833.7 and the “raw data 2” value stood at 20543.7.
As to `CC(=O)c1c(O)c(C)c(O)c(Cc2c(O)c3c(c(C(=O)/C=C/c4ccccc4)c2O)OC(C)(C)C=C3)c1O` [Rottlerin], the “Z repl 1” value was 0.296 and the “Z Repl 2” value stood at 1.083. For the same compound, the “av Z” value under setting [4] was 0.69. Also, the av puncta (average of raw data 1 and 2) was 27122.4. Further, for the setting “puncta”, the “raw data 1” value was found to be 29908.4 and the “raw data 2” value turned out to be 24336.4.
Regarding `COc1ccc(-c2oc3c(CC=C(C)C)c(O)cc(O)c3c(=O)c2O[C@@H]2O[C@@H](C)[C@H](O)[C@@H](O)[C@H]2O[C@@H]2O[C@H](CO)[C@@H](O)[C@H](O)[C@H]2O)cc1` [Sagittatoside A], the “Z repl 1” value was -0.371 and the “Z Repl 2” value is on record as -0.506. Moreover, the “av Z” value under setting [1] is recorded as -0.438. Under setting [2], this compound returned an av puncta of 14630.2. Under “raw puncta”, the “raw data 1” value turned out to be 21894.6 and the “raw data 2” value came out at 7365.88.
As for `COc1cc(O)c2c(c1)O[C@H](c1ccc(O)cc1)CC2=O` [Sakuranetin], the “Z repl 1” value worked out at 0.003 and the “Z Repl 2” value is recorded as -0.01. For the same compound, the “av Z” value under setting [3] is -0.004. Besides, under “average of raw data 1 and 2”, the av puncta was 19521.3. For the same compound, for the setting “puncta”, the “raw data 1” value amounted to 26379.5 and the “raw data 2” value came to 12663.1.
Take `OCc1ccccc1O` [Salicyl alcohol]: the “AvZ” value is given as -0.44; the “Z repl 1” value was -0.325; the “Z Repl 2” value is reported as -0.555. The av puncta under setting [2] is given as 14639.5. For the same compound, under “raw puncta”, the “raw data 1” value was found to be 22445.8 and the “raw data 2” value is recorded as 6833.28.
Turning to `O=C(O)c1ccccc1O` [Salicylic acid, reference compound], the “AvZ” value is -0.516; the “Z repl 1” value is recorded as -1.015; the “Z Repl 2” value is recorded as -0.017. The av puncta under setting [2] is listed as 13372.8. Where the note is “puncta”, the “raw data 1” value was found to be 14164.1 and the “raw data 2” value was 12581.6.
Turning to `O=C(/C=C/c1ccc(O)c(O)c1/C=C/c1ccc(O)c(O)c1)O[C@H](Cc1ccc(O)c(O)c1)C(=O)O` [Salvianolic acid A], the “Z repl 1” value is given as -2.14 and the “Z Repl 2” value is -1.185. Further, the “av Z” value under setting [1] was -1.663. Moreover, for the setting “average of raw data 1 and 2”, the av puncta worked out at 383.467. Under “puncta”, the “raw data 1” value stood at 661.17 and the “raw data 2” value is on record as 105.765.
Regarding `O=C(/C=C/c1ccc(O)c2oc(-c3ccc(O)c(O)c3)cc12)O[C@H](Cc1ccc(O)c(O)c1)C(=O)O` [Salvianolic acid C], the “Z repl 1” value was -1.645 and the “Z Repl 2” value is listed as -1.179. For the same compound, the “av Z” value under setting [1] is -1.412. Further, for the setting “average of raw data 1 and 2”, the av puncta is reported as 3386.53. Further, under “puncta”, the “raw data 1” value was 6602.17 and the “raw data 2” value was found to be 170.893.
